{"source": "patent US6417182B1", "about": "“Pharmaceutical compositions comprising metal complexes” (AnorMED Inc., priority 1993, dated 2002)", "key": {"[1]": {"test": "in vitro NO uptake test (manometric pressure decrease; IR spectrum of freeze-dried product)", "conditions": "aqueous solution under argon, 20-24° C., NO gas in headspace, pressure recorded over one hour", "protocol": "The resulting solution was placed in a three-necked pear-shaped flask and stirred by a magnetic stirrer at constant speed of 1000 rpm, at a constant temperature in the range 20° C.-24° C. A manometer was attached to the flask, and purified, dried nitric oxide gas (known volume in the range 3-5 cm^3) was introduced via a septum, using a gas syringe, at atmospheric pressure into the headspace above the reaction solution. The pressure within the flask was recorded periodically over a period of one hour.\nA control experiment was carried out according to the above but without any complex present.\nOn completion of each in vitro test, the reaction solution was freeze-dried. An infrared spectrum of the freeze-dried product provided information on metal-NO bond formation."}, "[2]": {"test_system": "rat tail artery", "test": "ex vivo rat tail artery perfusion test (vasoconstriction by removal of endogenous NO)", "set-up": "species or system Wistar rats", "conditions": "for vasoconstriction on application of test compound (in words): 10 μM and 100 μM (Example 26 also 1000 μM); for reversibility of vasoconstriction: washout with Krebs solution", "source_text": "In the ex vivo tests, segments of rat tail artery (0.8-1.5 cm) were dissected free from normotensive adult Wistar rats. The arteries were internally perfused with Krebs solution (mM: NaCl 118, KCl 4.7, NaHCO3, 25, NaH2PO4 1.15, CaCl2 2.5, MgCl2 1.1, glucose 5.6 and gassed with 95% O2/5% CO2 to maintain a pH of 7.4) in a constant flow perfusion apparatus. A differential pressure transducer located upstream of the vessel detected changes in back pressure. The rat tail artery preparation was pre-contracted with 6.5 μM phenylephrine to give a physiologically normal pressure of 100-120 mm Hg. The pre-contracted vessels were then perfused with the test compound. The arteries were perfused with Krebs solution between applications of test compound to wash out the test compound.\nPressure changes in the system served to indicate artery vasoconstriction. The vasoconstriction is a direct result of the removal of endogenous nitric oxide (edrf) from the endothelial cells of the rat tail artery."}, "[3]": {"test_system": "murine (RAW264) macrophage cell lines", "test": "in vitro cell culture test: available nitric oxide (nitrite+nitrate, Griess) in activated macrophages", "assay_type": "cell-based", "conditions": "up to 100 μM", "protocol": "In the in vitro cell culture tests, murine (RAW264) macrophage cell lines, which can be induced to produce nitric oxide, were seeded, 10^6 cells/well, onto 24 well culture plates of 2 ml volume per well, in Eagles modified minimal essential medium (MEM) plus 10% foetal bovine serum without phenol red.\nThe cells were activated to produce nitric oxide, with 10 μg/ml lipopolysaccharide and 100 units/ml interferon γ for 18 hours. Concurrently, test compounds made up in MEM were added at non-cytotoxic concentrations. […]\nBackground nitric oxide was assessed by measurement of nitrate and nitrite in cells which were not activated. […]\nNitric oxide was determined by measurement of nitrate and nitrite in the cell supernatant These anions are the stable end-products of reactions of NO in solution. […] Nitrite was determined using the Griess reaction in which nitrite reacts with 1% sulphanilamide in 5% H3PO4/0.1% naphthylethylenediamine dihydrochloride to form a chromophore absorbing at 540 nm Nitrate was determined by reducing nitrate to nitrite with a bacterial nitrate reductase from Pseudomonas oleovorans and then measuring nitrite with the Griess reaction. […] The effect of test compounds on available nitric oxide (measured as nitrite+nitrate) was determined. […]"}}, "data": [{"molecule": "O.O=C([O-])CN(CC(=O)[O-])CC(=O)O.O=C([O-])CN(CC(=O)[O-])CC(=O)O.O=C([O-])CN(CC(=O)[O-])CC(=O)O.O=C([O-])CN(CC(=O)[O-])CC(=O)O.[K+].[K+].[Ru+3].[Ru+3]", "note": "[Example 7, K[Ru(Hnta)2]½H2O]", "values": [{"measurement": "pressure decrease indicating binding of NO to the metal compound", "setting": "[1]", "value": "pressure decrease indicated binding of NO"}]}, {"molecule": "O.O=C([O-])CN(CCO)CCN(CC(=O)[O-])CC(=O)[O-].[Cl-].[K+].[Ru+3]", "note": "[Example 3, K[Ru(hedtra)Cl]H2O]", "values": [{"measurement": "vasoconstriction on application of test compound (in words)", "setting": "[2]", "value": "dose-dependent vasoconstriction"}, {"measurement": "reversibility of vasoconstriction", "setting": "[2]", "value": "reversible by washout with Krebs solution"}]}, {"molecule": "CC(=O)[O-].CC(=O)[O-].CC(=O)[O-].CC(=O)[O-].[Cl-].[Ru+3].[Ru+3]", "note": "[Example 14, [Ru2(OAc)4]Cl]", "values": [{"measurement": "vasoconstriction on application of test compound (in words)", "setting": "[2]", "value": "dose-dependent vasoconstriction"}, {"measurement": "reversibility of vasoconstriction", "setting": "[2]", "value": "reversible by washout with Krebs solution"}]}, {"molecule": "O.O.O=C([O-])CN(CCN(CC(=O)[O-])CC(=O)O)CC(=O)[O-].[Cl-].[K+].[Ru+3]", "note": "[Example 1, K[Ru(Hedta)Cl]2H2O]", "values": [{"measurement": "dose dependence of reduction of available nitric oxide", "setting": "[3]", "value": "reduced in a dose-dependent fashion"}]}, {"molecule": "[Ru(NH3)5Cl]Cl2 [Example 15]", "values": [{"measurement": "vasoconstriction on application of test compound (in words)", "setting": "[2]", "value": "dose-dependent vasoconstriction"}, {"measurement": "% Vasoconstriction", "setting": "[2]; 10 μM, artery pre-contracted with 6.5 μM phenylephrine", "value": 16, "unit": "%"}, {"measurement": "reversibility of vasoconstriction", "setting": "[2]", "value": "reversible by washout with Krebs solution"}]}, {"molecule": "Cc1occc(=O)c1[O-].Cc1occc(=O)c1[O-].Cc1occc(=O)c1[O-].[Ru+3]", "note": "[Example 26, [Ru(maltol)3]]", "values": [{"measurement": "vasoconstriction on application of test compound (in words)", "setting": "[2]", "value": "dose-dependent vasoconstriction"}, {"measurement": "reversibility of vasoconstriction", "setting": "[2]", "value": "reversible by washout with Krebs solution"}]}, {"molecule": "CC(=O)C=C(C)[O-].O=C([O-])CN(CCN(CC(=O)[O-])CC(=O)O)CC(=O)O.[Ru+3]", "note": "[Example 2, [Ru(H2edta)(acac)]]", "values": [{"measurement": "vasoconstriction on application of test compound (in words)", "setting": "[2]", "value": "dose-dependent vasoconstriction"}, {"measurement": "reversibility of vasoconstriction", "setting": "[2]", "value": "reversible by washout with Krebs solution"}]}, {"molecule": "O.O=C([O-])CN(CCN(CC(=O)[O-])CC(=O)O)CCN(CC(=O)[O-])CC(=O)O.[Cl-].[K+].[Ru+3]", "note": "[Example 8, K[Ru(H2dtpa)Cl]H2O]", "values": [{"measurement": "pressure decrease indicating binding of NO to the metal compound", "setting": "[1]", "value": "pressure decrease indicated binding of NO"}]}]}
